Values of other authors, collected in patent US20110208437A1, “METHOD AND APPARATUS FOR I[…] SAFE AND E[…] REGIMEN” (THE MCLEAN HOSPITAL CORPORATION, priority 2008, published 2011).

Columns and labels:
[1] = 2.5 mg Focalin same therapeutic benefit as 5.0 mg Ritalin
dopamine reuptake = dopamine reuptake (Homo sapiens, UniProt Q01959)
[2] = clinical trials, adults and children
[3] = oral administration of the same mg/kg dose

Chain of dopamine reuptake (Q01959 whole entry): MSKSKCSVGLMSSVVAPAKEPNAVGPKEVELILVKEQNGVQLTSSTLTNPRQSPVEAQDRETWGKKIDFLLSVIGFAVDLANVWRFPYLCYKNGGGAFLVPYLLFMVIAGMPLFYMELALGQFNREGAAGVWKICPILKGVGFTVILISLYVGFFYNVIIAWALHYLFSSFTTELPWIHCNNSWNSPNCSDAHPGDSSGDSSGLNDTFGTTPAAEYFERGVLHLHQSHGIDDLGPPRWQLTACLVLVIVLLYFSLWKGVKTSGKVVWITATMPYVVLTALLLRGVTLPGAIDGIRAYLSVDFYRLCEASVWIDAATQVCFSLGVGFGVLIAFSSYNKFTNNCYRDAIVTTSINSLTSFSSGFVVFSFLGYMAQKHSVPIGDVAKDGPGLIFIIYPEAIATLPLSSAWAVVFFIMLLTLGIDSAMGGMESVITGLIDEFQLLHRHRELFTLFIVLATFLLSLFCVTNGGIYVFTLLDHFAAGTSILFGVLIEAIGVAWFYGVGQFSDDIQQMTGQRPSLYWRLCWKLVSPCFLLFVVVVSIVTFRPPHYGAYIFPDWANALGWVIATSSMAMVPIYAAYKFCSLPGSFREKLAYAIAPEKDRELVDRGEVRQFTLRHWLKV

SMILES: COC(=O)[C@H](c1ccccc1)[C@H]1CCCCN1 [Focalin]
- potency relative to methylphenidate [1]: twice as potent

SMILES: CC(NC(C)(C)C)C(=O)c1cccc(Cl)c1 (stereo not shown) [Bupropion]
- potency as inhibitor of dopamine reuptake relative to norepinephrine reuptake (dopamine reuptake): twice as potent

SMILES: CNCC[C@@H](Oc1ccccc1C)c1ccccc1 [Atomoxetine]
- coverage of symptoms associated with ADHD [2]: 24 h

SMILES: COC(=O)C(c1ccccc1)C1CCCCN1 (stereo not shown) [IR-MPH, methylphenidate]
- differences between individuals in peak blood levels (Cmax) [3]: 2-3 fold
